# Bridge positions count the residues as written; N and C are the ends. Square brackets hold non-standard residues; d marks the D form. Peptide text beside a SMILES is read from it. R8 = C=CCCCCCC[C@@](C)(N)C(=O)O; S5 = C=CCCC[C@](C)(N)C(=O)O; Nle = CCCC[C@H](N)C(=O)O
# How the values were obtained:
# HRE-bla ME-180 cells = assay: Reporter gene assay (HRE-bla ME-180 HIF reporter, GeneBLAzer); type: cell-based, human; conditions: for EC50: 24 hour normoxia
# Procedure, shortened: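 A FRET β-lactamase readout of HIF transcription was used. After compound treatment in 0.3% DMSO/media under normoxic conditions, 20 μl of 6× LiveBLAzer-FRET B/G (CCF4-AM) substrate was added. Plates sat 3 hr at room temperature in the dark and were read at 409 Ex/460Em and 409Ex/530Em on a Synergy 2. Inhibition was compared against DMSO vehicle controls, with chetomin as positive control.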
# [1] = biological target: T1, flag-tagged HIF1α (AA 786-826) / His6-tagged p300 (AA 323-423) complex (Homo sapiens, UniProt Q09472); assay: HIF1α p300 displacement assay (TR FRET, +CHAPS); type: binding; conditions: read-out: IC50 (nM) (HIF1α_p300 Displacement + CHAPS)
# T1 construct: His6-tagged p300 (AA 323-423); made in house; host or cells: E. coli (pETDuet vector)
# Procedure, shortened: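 In this TR-FRET displacement format, peptides compete HIF1α C-terminal transactivation domain off p300-CH. They were preincubated 1 h at room temperature with 300 nM complex in HEPES pH 7.4/NaCl buffer with 7.5 mM CHAPS and 1 mM DTT. Anti-His-D2 (4 nM) and anti-Flag-K (0.5 μM) followed for 2 h, and a one-site fit of the fluorescence ratio gave IC50.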
Structure (SMILES),EC50 (HRE-bla ME-180 cells) [µM],IC50 [1] [nM],18 h Avg % max inhibition at top conc (HIF Rptr-24 hrs normoxia) (μM) (HRE-bla ME-180 cells)
CC[C@H](C)[C@H](NC(=O)[C@H](Cc1ccccc1)NC(C)=O)C(=O)N[C@H](C(=O)N[C@@H](CCC(=O)O)C(=O)N[C@@H](CCC(=O)O)C(=O)N[C@H](C(=O)N[C@@H](CC(C)C)C(=O)N[C@@H](CCSC)C(=O)N[C@@]1(C)CCCC=CCCC[C@@](C)(C(=O)N[C@@H](CCSC)C(=O)N[C@@H](C)C(=O)N[C@@H](CC(C)C)C(N)=O)NC(=O)[C@H]([C@@H](C)CC)NC(=O)[C@H](C(C)C)NC(=O)[C@H](CC(C)C)NC1=O)C(C)C)[C@@H](C)O [SP-231] (Ac-FITEEVLM[S5]LVI[S5]MAL-NH2; staple 9-13),> 30,> 700,+ (<10: +)
CCCC[C@H](NC(=O)[C@H](C)NC(=O)[C@@H](NC(=O)[C@@H](NC(=O)[C@H](CC(C)C)NC(=O)[C@]1(C)CCCC=CCCC[C@](C)(NC(=O)[C@H](CCC(=O)O)NC(=O)[C@H](CC(=O)O)NC(=O)[C@@H](NC(=O)[C@H](Cc2ccccc2)NC(C)=O)[C@@H](C)CC)C(=O)N[C@@H](C(C)C)C(=O)N[C@@H](CC(C)C)C(=O)N[C@@H](CCCC)C(=O)N1)C(C)C)[C@@H](C)CC)C(=O)N[C@@H](C)C(=O)N[C@@H](CC(C)C)C(N)=O [SP-122] (Ac-FIDE[S5]VL[Nle][S5]LVIA[Nle]AL-NH2; staple 5-9),> 30,200 to 400,++ (≤10 but <25: ++)
CCCC[C@H](NC(=O)[C@H](CCC(=O)O)NC(=O)[C@@H](NC(=O)[C@@H](NC(=O)[C@H](CC(C)C)NC(=O)[C@]1(C)CCCC=CCCC[C@](C)(NC(=O)[C@H](CCC(=O)O)NC(=O)[C@H](CC(=O)O)NC(=O)[C@@H](NC(=O)[C@H](Cc2ccccc2)NC(C)=O)[C@@H](C)CC)C(=O)N[C@@H](C(C)C)C(=O)N[C@@H](CC(C)C)C(=O)N[C@@H](CCCC)C(=O)N1)C(C)C)[C@@H](C)CC)C(=O)NCC(=O)N[C@@H](CC(C)C)C(=O)N[C@@H](CC(=O)O)C(=O)N[C@@H](CCCNC(=N)N)C(=O)N[C@H](C(=O)N[C@@H](CCCCN)C(=O)N[C@@H](CCC(=O)O)C(=O)N[C@@H](CC(C)C)C(=O)N1CCC[C@H]1C(=O)N[C@@H](CCC(=O)O)C(=O)N[C@@H](CC(C)C)C(=O)N[C@@H](Cc1c[nH]c2ccccc12)C(=O)N[C@@H](CC(C)C)C(N)=O)[C@@H](C)CC [SP-105] (Ac-FIDE[S5]VL[Nle][S5]LVIE[Nle]GLDRIKELPELWL-NH2; staple 5-9),> 30,≤ 200,–
CCCC[C@H](NC(=O)[C@H](CCCNC(=N)N)NC(=O)[C@H](CC(=O)O)NC(=O)[C@H](CC(C)C)NC(=O)[C@H](C)NC(=O)[C@H](CCCC)NC(=O)[C@H](C)NC(=O)[C@@H](NC(=O)[C@@H](NC(=O)[C@H](CC(C)C)NC(=O)[C@]1(C)CCCC=CCCC[C@](C)(NC(=O)[C@H](CCC(=O)O)NC(=O)[C@H](CC(=O)O)NC(=O)[C@@H](NC(=O)[C@H](Cc2ccccc2)NC(C)=O)[C@@H](C)CC)C(=O)N[C@@H](C(C)C)C(=O)N[C@@H](CC(C)C)C(=O)N[C@@H](CCCC)C(=O)N1)C(C)C)[C@@H](C)CC)C(N)=O [SP-125] (Ac-FIDE[S5]VL[Nle][S5]LVIA[Nle]ALDR[Nle]-NH2; staple 5-9),> 30,200 to 400,+ (<10: +)
CCCC[C@@H]1NC(=O)[C@H](CC(C)C)NC(=O)[C@H]([C@@H](C)O)NC(=O)[C@@](C)(NC(=O)[C@H](C)NC(=O)[C@H](CC(=O)O)NC(=O)[C@@H](NC(=O)[C@H](Cc2ccccc2)NC(C)=O)[C@@H](C)CC)CCCC=CCCCC2(CCCC=CCCC[C@](C)(C(=O)N[C@@H](CCCC)C(=O)N[C@@H](C)C(=O)N[C@@H](CC(C)C)C(N)=O)NC(=O)[C@H]([C@@H](C)CC)NC(=O)[C@H](C(C)C)NC(=O)[C@H](CO)NC2=O)NC1=O (some centres unmarked) [SP-214],> 30,> 700,+++ (≤25 but <50: +++)
CCCC[C@@H]1NC(=O)[C@H](CC(C)C)NC(=O)[C@H](CCCNC(=N)N)NC(=O)[C@@](C)(NC(=O)[C@H](CCC(=O)O)NC(=O)[C@H](CC(=O)O)NC(=O)[C@@H](NC(=O)[C@H](Cc2ccccc2)NC(C)=O)[C@@H](C)CC)CCCC=CCCCC2(CCCC=CCCC[C@](C)(C(=O)N[C@@H](CCCC)C(=O)N[C@@H](C)C(=O)N[C@@H](CC(C)C)C(N)=O)NC(=O)[C@H]([C@@H](C)CC)NC(=O)[C@H](C(C)C)NC(=O)[C@H](CC(C)C)NC2=O)NC1=O (some centres unmarked) [SP-206],> 30,> 700,+ (<10: +)
CCCC[C@H](NC(=O)[C@H](CCC(=O)O)NC(=O)[C@@H](NC(=O)[C@@H](NC(=O)[C@H](CC(C)C)NC(=O)[C@]1(C)CCCC=CCCC[C@](C)(NC(=O)[C@H](CCC(=O)O)NC(=O)[C@H](C)NC(=O)[C@@H](NC(=O)[C@H](Cc2ccccc2)NC(C)=O)[C@@H](C)CC)C(=O)N[C@@H](C(C)C)C(=O)N[C@@H](CC(C)C)C(=O)N[C@@H](CCCC)C(=O)N1)C(C)C)[C@@H](C)CC)C(=O)N[C@@H](C)C(=O)N[C@@H](CC(C)C)C(=O)N[C@@H](CC(=O)O)C(=O)N[C@@H](C)C(=O)N[C@H](C(N)=O)[C@@H](C)CC [SP-120] (Ac-FIAE[S5]VL[Nle][S5]LVIE[Nle]ALDAI-NH2; staple 5-9),> 30,≤ 200,+ (<10: +)

# Second part, led by results:
EC50 (HRE-bla ME-180 cells) [µM],IC50 [1] [nM],Structure (SMILES),18 h Avg % max inhibition at top conc (HIF Rptr-24 hrs normoxia) (μM) (HRE-bla ME-180 cells)
> 30,400 to 700,CCCC[C@H](NC(=O)[C@H](CC(C)C)NC(=O)[C@@H](NC(=O)[C@H](CCC(=O)O)NC(=O)[C@H](CCC(=O)O)NC(=O)[C@H](CC(=O)O)NC(=O)[C@@H](NC(=O)[C@H](Cc1ccccc1)NC(C)=O)[C@@H](C)CC)C(C)C)C(=O)N[C@@]1(C)CCCC=CCCC[C@@](C)(C(=O)N[C@@H](CCCC)C(=O)N[C@@H](C)C(=O)N[C@@H](CC(C)C)C(N)=O)NC(=O)[C@H]([C@@H](C)CC)NC(=O)[C@H](C(C)C)NC(=O)[C@H](Cc2ccccc2)NC1=O [SP-219] (Ac-FIDEEVL[Nle][S5]FVI[S5][Nle]AL-NH2; staple 9-13),++ (≤10 but <25: ++)
≤ 5,400 to 700,CCCC[C@H](NC(=O)[C@H](CCC(=O)O)NC(=O)[C@@H](NC(=O)[C@@H](NC(=O)[C@H](CC(N)=O)NC(=O)[C@]1(C)CCCC=CCCC[C@](C)(NC(=O)[C@H](C)NC(=O)[C@H](CC(=O)O)NC(=O)[C@@H](NC(=O)[C@H](Cc2ccccc2)NC(C)=O)[C@@H](C)CC)C(=O)N[C@@H]([C@@H](C)O)C(=O)N[C@@H](CC(C)C)C(=O)N[C@@H](CCCC)C(=O)N1)C(C)C)[C@@H](C)CC)C(=O)N[C@@H](C)C(=O)N[C@@H](CC(C)C)C(N)=O [SP-151] (Ac-FIDA[S5]TL[Nle][S5]NVIE[Nle]AL-NH2; staple 5-9),++++ (≥50: ++++)
> 30,400 to 700,CCCC[C@H](NC(=O)[C@H](C)NC(=O)[C@]1(C)CCCC=CCCCCCC[C@@](C)(NC(=O)[C@H](CCC(=O)O)NC(=O)[C@H](C)NC(=O)[C@@H](NC(=O)[C@H](Cc2ccccc2)NC(C)=O)[C@@H](C)CC)C(=O)N[C@@H](C(C)C)C(=O)N[C@@H](CC(C)C)C(=O)N[C@@H](CCCC)C(=O)N[C@@H](CO)C(=O)N[C@@H](CC(C)C)C(=O)N[C@@H](C(C)C)C(=O)N1)C(=O)N[C@@H](C)C(=O)N[C@@H](CC(C)C)C(=O)N[C@@H](CC(=O)O)C(=O)N[C@@H](C)C(=O)N[C@H](C(N)=O)[C@@H](C)CC [SP-193] (Ac-FIAE[R8]VL[Nle]SLV[S5]A[Nle]ALDAI-NH2; staple 5-12),+ (<10: +)
> 30,400 to 700,CC[C@H](C)[C@H](NC(=O)[C@H](Cc1ccccc1)NC(C)=O)C(=O)N[C@@H](CC(=O)O)C(=O)N[C@@H](CCC(=O)O)C(=O)N[C@@H](CO)C(=O)N[C@H](C(=O)N[C@@H](CC(C)C)C(=O)N[C@@H](CCSC)C(=O)N[C@@]1(C)CCCC=CCCC[C@@](C)(C(=O)N[C@@H](CCSC)C(=O)N[C@@H](C)C(=O)N[C@@H](CC(C)C)C(N)=O)NC(=O)[C@H]([C@@H](C)CC)NC(=O)[C@H](C(C)C)NC(=O)[C@H](CC(C)C)NC1=O)C(C)C [SP-238] (Ac-FIDESVLM[S5]LVI[S5]MAL-NH2; staple 9-13),++ (≤10 but <25: ++)
> 30,> 700,CCCC[C@H](NC(=O)[C@H](CCCNC(=N)N)NC(=O)[C@@H](NC(=O)[C@@H](NC(=O)[C@H](CC(C)C)NC(=O)[C@]1(C)CCCC=CCCC[C@](C)(NC(=O)[C@H](CCC(=O)O)NC(=O)[C@H](CC(=O)O)NC(=O)[C@@H](NC(=O)[C@H](Cc2ccccc2)NC(C)=O)[C@@H](C)CC)C(=O)N[C@@H](C(C)C)C(=O)N[C@@H](CC(C)C)C(=O)N[C@@H](CCCC)C(=O)N1)C(C)C)[C@@H](C)CC)C(=O)N[C@@H](C)C(=O)N[C@@H](CC(C)C)C(N)=O [SP-157] (Ac-FIDE[S5]VL[Nle][S5]LVIR[Nle]AL-NH2; staple 5-9),+ (<10: +)
